# Test results reported in patent US20130102009A1, “SIRTUIN ACTIVATORS AND ACTIVATION ASSAYS” (priority 2010, published 2013).
# Several values for one entry are separate records, joined by “and”; a condition that tells them apart may be missing. Identical values can stand only once. Counter-ions that a name gives are not always drawn.
# Key:
# SIRT1 [1] = target: T1, SIRT1 (Homo sapiens, UniProt Q96EB6); experiment: Mass spectrometry based SIRT1 activation assay (TAMRA/5TMR-labeled 20mer peptide); type: biochemical; conditions: for Emax: 25 min, percent maximum fold activation of SIRT1, read-out: % FOLD ACT.; for EC1.5 uM: concentration that results in 150% activation of SIRT1
# T1 sequence (Q96EB6 1-747): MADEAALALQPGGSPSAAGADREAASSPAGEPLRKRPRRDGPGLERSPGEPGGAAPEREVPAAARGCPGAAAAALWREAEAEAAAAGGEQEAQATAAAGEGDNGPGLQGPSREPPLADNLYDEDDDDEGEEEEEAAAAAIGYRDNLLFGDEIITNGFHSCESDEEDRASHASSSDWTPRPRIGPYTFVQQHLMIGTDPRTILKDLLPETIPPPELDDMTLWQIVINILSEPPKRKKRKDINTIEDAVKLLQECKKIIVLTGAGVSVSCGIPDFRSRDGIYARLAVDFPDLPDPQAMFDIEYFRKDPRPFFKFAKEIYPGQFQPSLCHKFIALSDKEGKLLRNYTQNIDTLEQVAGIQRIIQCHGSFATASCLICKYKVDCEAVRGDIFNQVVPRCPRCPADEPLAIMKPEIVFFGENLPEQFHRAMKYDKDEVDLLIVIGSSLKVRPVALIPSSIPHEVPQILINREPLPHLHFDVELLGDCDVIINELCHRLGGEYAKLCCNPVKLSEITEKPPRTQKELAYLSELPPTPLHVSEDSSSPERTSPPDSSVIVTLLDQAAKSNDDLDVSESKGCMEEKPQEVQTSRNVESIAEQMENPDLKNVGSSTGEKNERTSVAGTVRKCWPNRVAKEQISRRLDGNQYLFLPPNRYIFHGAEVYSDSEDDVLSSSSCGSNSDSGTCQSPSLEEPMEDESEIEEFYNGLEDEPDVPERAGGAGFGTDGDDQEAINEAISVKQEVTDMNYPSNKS
# Description: A mass spectrometry based assay was used to identify modulators of SIRTI activity. The mass spectrometry based assay utilizes a peptide having 20 amino acid residues as follows: Ac-EE-K(biotin)-GQSTSSHSK(Ac)NleSTEG-K(5TMR)-EE-NH2 (SEQ ID NO: 1) wherein K(Ac) is an acetylated lysine residue and Nle is a norleucine. The peptide is labeled with the fluorophore 5TMR (excitation 540 nrnIemission 580 nm) at the C-terminus. The sequence of the peptide substrate is based on p53 with several modifications. In addition, the methionine residue naturally present in the sequence was replaced with the norleucine because the methionine may be susceptible to oxidation during synthesis and purification.
# The mass spectrometry assay is conducted as follows: 0.5 J-1M peptide substrate and 120 μM βNAD^+ is incubated with 10 nM SIRT1 for 25 minutes at 25° C. in a reaction buffer (50 mM Tris-acetate pH 8, 137 mM NaCl, 2.7 mM KCl, 1 mM MgClz, 5 mM DTT, 0.05% BSA). Test compounds may be added to the reaction as described above. The SirTI gene is cloned into a T7-promoter containing vector and transformed into BL21 (DE3). After the 25 minute incubation with SIRT1, 10 μL of 10% formic acid is added to stop the reaction. Reactions are sealed and frozen for later mass spec analysis. Determination of the mass of the substrate peptide allows for precise determination of the degree of acetylation (i.e. starting material) as compared to deacetylated peptide (product).
# A control for inhibition of sirtuin activity is conducted by adding 1 μL of 500 mM nicotinamide as a negative control at the start of the reaction (e.g., permits determination of maximum sirtuin inhibition). A control for activation of sirtuin activity is conducted using 10 nM of sirtuin protein, with 1 μL of DMSO in place of compound, to determine the amount of deacetylation of the substrate at a given timepoint within the linear range of the assay. This timepoint is the same as that used for test compounds and, within the linear range, the endpoint represents a change in velocity.
# For the above assay, SIRTI protein was expressed and purified as follows. The SirT1 gene was cloned into a T7-promoter containing vector and transformed into BL21(DE3). The protein was expressed by induction with 1 mM IPTG as an N-terminal His-tag fusion protein at 18° C. overnight and harvested at 30,000×g. Cells were lysed with lysozyme in lysis buffer (50 mM Tris-HCl, 2 mM Tris[2-carboxyethyl]phosphine (TCEP), 10 μM ZnCl2, 200 mM NaCl) and further treated with sonication for 10 min for complete lysis. The protein was purified over a Ni-NTA column (Amersham) and fractions containing pure protein were pooled, concentrated and run over a sizing column (Sephadex S200 26/60 global). The peak containing soluble protein was collected and run on an Ion-exchange column (MonoQ). Gradient elution (200 mM-500 mM NaCl) yielded pure 20 protein. This protein was concentrated and dialyzed against dialysis buffer (20 mM TrisHCl, 2 mM TCEP) overnight. The protein was aliquoted and frozen at −80° C. until further use.
# Sirtuin modulating compounds that activated SIRT1 were identified using the assay described above and are shown below in Table 4. The EC1.5 values represent the concentration of test compounds that result in 150% activation of SIRT1. The EC1.5 values for the activating compounds are represented by A (EC1.5≦1 μM), B (EC1.5>1 μM). The percent maximum fold activation is represented by A (Fold activation ≧200%) or B (Fold Activation <200%).
# SIRT1 [2] = target: T1, SIRT1; experiment: Mass spectroscopic kinetic assay of SIRT1-catalyzed deacetylation of 20mer peptides; type: biochemical
# Method: Bovine glutamate dehydrogenase (GDH), α-ketoglutarate, NADH and NAD^+ were from Sigma Chemical Company. […] The nicotinamidase PNC1 was prepared as described by Denu and colleagues (Smith et al. (2009) Anal Biochem 394, 101-109). Our collection of approximately 5,000 SIRT1 activators was screened using the BioTrove mass spectrometry system, as previously described (Milne et al. (2007) Nature 450, 712-716). […] Compounds were present at 10 μM, and the assays were conducted in a pH 7.4 buffer containing 150 mM Tris, 5 mM DTT, 1% DMSO, and 0.025% BSA. To determine the interaction of STACs with SIRT1 two kinetic methods were employed. […] (2007) Nature 450, 712-716). The other, used with peptides of general structure […], used a continuous, enzyme-coupled method reported previously (Smith et al. (2009) Anal Biochem 394, 101-109), in which the SRT1 product nicotinamide is first converted into nicotinic acid and ammonia by the action of PNC1, and the ammonia then used by GDH to convert α-ketoglutarate into glutamate. This reaction occurs with oxidation of NADH to NAD^+ which is accompanied by a change in absorbance at 340 nm (Δε340=-6,200 M^-1 cm^-1). Activator titrations were plotted as relative velocity (i.e., the ratio of vx, velocity in the presence of activator X, to vo, velocity in the absence of activator) vs. [X]o, initial concentration of activator, and fit by nonlinear least-squares to the mechanism-independent expression for enzyme activation of […] the maximum relative velocity (i.e., vx/vo at infinite [X]o) and EC50 is the activator concentration at which vx/vo=(RVmax-1)/2. EC50 is a function of the kinetic mechanisms of both catalysis and activation, and the concentrations of substrates.
Compound,Emax (SIRT1 [1]) [%],EC1.5 uM (SIRT1 [1]),also measured
"O=C(Nc1cccc(COC2CCNCC2)c1)c1cccc2[nH]c(-c3ccnc(N4CCOCC4)c3)nc12 [Compound 17, 2-(2-morpholinopyridin-4-yl)-N-(3-((piperidin-4-yloxy)methyl)phenyl)-1H-benzo[d]imidazole-4-carboxamide]",≥ 200,A (EC1.5≦1 μM),–
"COc1ccc(C(=O)Nc2ccccc2-c2nc3cc(COC4CCNCC4)cnc3s2)cc1OC [Compound 8, 3,4-dimethoxy-N-(2-(6-((piperidin-4-yloxy)methyl)thiazolo[5,4-b]pyridin-2-yl)phenyl)benzamide]",≥ 200,A (EC1.5≦1 μM),–
"CCCNc1cc(-c2nc3c(NC(=O)c4cccc(C5CCNC5)c4)cccc3[nH]2)ccn1 (stereo not shown) [Compound 15, N-(2-(2-(propylamino)pyridin-4-yl)-1H-benzo[d]imidazol-4-yl)-3-(pyrrolidin-3-yl)benzamide hydrochloride]",≥ 200,A (EC1.5≦1 μM),–
"CC(C)Cc1nc(NC2CCNCC2)cc(C(=O)Nc2ccccc2-c2nc3cc(COC4CCNCC4)cnc3s2)n1 [Compound 11, 2-isobutyl-6-(piperidin-4-ylamino)-N-(2-(6-((piperidin-4-yloxy)methyl)thiazolo[5,4-b]pyridin-2-yl)phenyl)pyrimidine-4-carboxamide]",≥ 200,A (EC1.5≦1 μM),"Effect on the deacetylation of des(biotin,TAMRA)-peptide (SIRT1 [2]; substrate des(biotin,TAMRA)-peptide): none activate; RVmax for activation of the deacetylation of desTAMRA-peptide (SIRT1 [2]; substrate desTAMRA-peptide, fit to eq (1)): ~2.3; RVmax for activation of the deacetylation of desTAMRA-peptide (SIRT1 [2]; substrate desTAMRA-peptide, fit to eq (1), listed as 23): 2.8±0.2; EC50 (SIRT1 [2]; substrate desTAMRA-peptide, fit to eq (1), read-out: EC50 for activation of the deacetylation of desTAMRA-peptide): ~2 µM and 2.2 µM; Ki,app for inhibition of the deacetylation of p53-20 mer (SIRT1 [2]; substrate p53-20 mer, RV=1/(1+([X]o/Ki,app))): inhibit; Ki (SIRT1 [2]; substrate p53-20 mer, RV=1/(1+([X]o/Ki,app)), read-out: Ki,app for inhibition of the deacetylation of p53-20 mer): 10 ± 1 µM"
CN(C)CCNCc1cccc(C(=O)Nc2ccccc2-c2nc3cc(COC4CCNCC4)cnc3s2)c1 [Compound 9],< 200,B (EC1.5>1 μM),–
"O=C(Nc1ccccc1-c1cn2c(CN3CCNCC3)csc2n1)c1cccc(-c2ccccc2)c1 [Compound 1, N-(2-(3-(piperazin-1-ylmethyl)imidazo[2,1-b]thiazol-6-yl)phenyl)biphenyl-3-carboxamide]",≥ 200,A (EC1.5≦1 μM),–
"COc1ccc2nc(NC(=O)c3cccc4[nH]c(-c5ccc(N6CCNCC6)nc5)nc34)sc2c1 [Compound 19, N-(6-methoxybenzo[d]thiazol-2-yl)-2-(6-(piperazin-1-yl)pyridin-3-yl)-1H-benzo[d]imidazole-4-carboxamide]",≥ 200,A (EC1.5≦1 μM),–
CC(C)CNCC1CC1C(=O)Nc1ccccc1-c1nc2cc(CN3CCNCC3)cnc2s1 (stereo not shown) [Compound 6],–,B (EC1.5>1 μM),–
"O=C(Nc1ccccc1-c1nc2cc(CN3CC[C@@H](F)C3)cnc2s1)c1cccc(OC2CN3CCC2CC3)c1 (stereo partly drawn) [Compound 5, N-(2-(6-(((R)-3-fluoropyrrolidin-1-yl)methyl)thiazolo[5,4-b]pyridin-2-yl)phenyl)-3-(quinuclidin-3-yloxy)benzamide]",≥ 200,B (EC1.5>1 μM),–
"O=C(Nc1ccccc1-c1cn2c(CN3CCNCC3)csc2n1)c1nc2ncccc2o1 [Compound 3, N-(2-(3-(piperazin-1-ylmethyl)imidazo[2,1-b]thiazol-6-yl)phenyl)oxazolo[4,5-b]pyridine-2-carboxamide]",< 200,B (EC1.5>1 μM),–
CCCCN(CCCC)c1cc(-c2nc3c(C(=O)Nc4cccc(COC5CCNCC5)c4)cccc3[nH]2)ccn1 [Compound 21],≥ 200,A (EC1.5≦1 μM),–
"N#Cc1ccc(NC(=O)c2cccc3[nH]c(-c4ccc(N5CCNCC5)nc4)nc23)cc1C(F)(F)F [Compound 20, N-(4-cyano-3-(trifluoromethyl)phenyl)-2-(6-(piperazin-1-yl)pyridin-3-yl)-1H-benzo[d]imidazole-4-carboxamide]",≥ 200,A (EC1.5≦1 μM),–
CN(C)CCCNc1ccc(-c2nc3cc(NC(=O)c4cccc(CN5CCNCC5)c4)ccc3[nH]2)cn1 [Compound 18],< 200,B (EC1.5>1 μM),–
